From ChEMBL document CHEMBL5113452, “Synthesis and biological evaluation of hybrids from optically active ring-opened 3-N-butylphthalide derivatives and 4-fluro-edaravone as potential anti-acute ischemic stroke agents” (Bioorg Med Chem, 2022)
Active and inactive are the calls of the source. No cut-off for these calls is given here.

Columns and labels:
[1] = Prodrug conversion in Sprague-Dawley rat plasma assessed as volume of distribution at steady state of metabolite S-NBP at 10 mg/kg, iv and measured upto 24 hrs by LC-MS/MS analysis; assay type: ADME, organism-based; details: in vivo
[2] = Prodrug conversion in Sprague-Dawley rat plasma assessed as elimination rate constant of metabolite S-NBP at 10 mg/kg, iv and measured upto 24 hrs by LC-MS/MS analysis; assay type: ADME, organism-based; details: in vivo
[3] = Metabolic stability in rat plasma assessed as half life at 200 uM and measured upto 24 hrs by HPLC analysis; assay type: ADME, cell-free
[4] = Metabolic stability in rat liver microsomes assessed as half life at 20 mM and measured upto 120 mins by HPLC analysis; assay type: ADME, Microsome
[5] = Prodrug conversion in Sprague-Dawley rat plasma assessed as AUC (0-t) of metabolite 4-F-Eda at 10 mg/kg, iv and measured upto 24 hrs by LC-MS/MS analysis; assay type: ADME, organism-based; parameters: dose 10 mg/kg, time < 24 hrs, route iv; details: in vivo
[6] = Prodrug conversion in Sprague-Dawley rat plasma assessed as AUMC (0-t) of metabolite 4-F-Eda at 10 mg/kg, iv and measured upto 24 hrs by LC-MS/MS analysis; assay type: ADME, organism-based; details: in vivo
[7] = Prodrug conversion in Sprague-Dawley rat plasma assessed as AUMC (0-infinity) of metabolite S-NBP at 10 mg/kg, iv and measured upto 24 hrs by LC-MS/MS analysis; assay type: ADME, organism-based; details: in vivo
[8] = Prodrug conversion in Sprague-Dawley rat plasma assessed as MRT of metabolite S-NBP at 10 mg/kg, iv and measured upto 24 hrs by LC-MS/MS analysis; assay type: ADME, organism-based; details: in vivo
[9] = Prodrug conversion in Sprague-Dawley rat plasma assessed as 4-F-Eda metabolite formation at 10 mg/kg, iv and measured upto 24 hrs by LC-MS/MS analysis; assay type: ADME, organism-based; details: in vivo
[10] = Prodrug conversion in Sprague-Dawley rat plasma assessed as AUC (0-infinity) of metabolite S-NBP at 10 mg/kg, iv and measured upto 24 hrs by LC-MS/MS analysis; assay type: ADME, organism-based; parameters: dose 10 mg/kg, time < 24 hrs, route iv; details: in vivo
[11] = Prodrug conversion in Sprague-Dawley rat plasma assessed as AUMC (0-infinity) of metabolite 4-F-Eda at 10 mg/kg, iv and measured upto 24 hrs by LC-MS/MS analysis; assay type: ADME, organism-based; details: in vivo
[12] = Prodrug conversion in Sprague-Dawley rat plasma assessed as AUMC (0-t) of metabolite S-NBP at 10 mg/kg, iv and measured upto 24 hrs by LC-MS/MS analysis; assay type: ADME, organism-based; details: in vivo
[13] = Prodrug conversion in Sprague-Dawley rat plasma assessed as volume of distribution at steady state of metabolite 4-F-Eda at 10 mg/kg, iv and measured upto 24 hrs by LC-MS/MS analysis; assay type: ADME, organism-based; details: in vivo
Rattus norvegicus [14] = experiment: Neuroprotective activity against transient middle cerebral artery occlusion induced ischemia stroke Sprague-Dawley rat model assessed as increase in neuro-fucntional score at 10 mg/kg, iv and measured after 24 hrs by longa's method; assay type: functional, organism-based
[15] = Prodrug conversion in Sprague-Dawley rat plasma assessed as Cmax of metabolite S-NBP at 10 mg/kg, iv and measured upto 24 hrs by LC-MS/MS analysis; assay type: ADME, organism-based; parameters: time < 24 hrs, dose 10 mg/kg, route iv; details: in vivo
[16] = Prodrug conversion in Sprague-Dawley rat plasma assessed as AUC (0-t) of metabolite S-NBP at 10 mg/kg, iv and measured upto 24 hrs by LC-MS/MS analysis; assay type: ADME, organism-based; parameters: time < 24 hrs, dose 10 mg/kg, route iv; details: in vivo
[17] = Prodrug conversion in Sprague-Dawley rat plasma assessed as S-NBP metabolite formation at 10 mg/kg, iv and measured upto 24 hrs by LC-MS/MS analysis; assay type: ADME, organism-based; details: in vivo
Rattus norvegicus [18] = experiment: Neuroprotective activity against transient middle cerebral artery occlusion induced cerebral infraction Sprague-Dawley rat model assessed as decrease in cerebral infraction volume at 10 mg/kg, iv and measured after 24 hrs by TTC staining based assay; assay type: functional; parameters: scale not given: the % may be the effect or the level left
[19] = Toxicity in transient middle cerebral artery occlusion induced ischemia stroke Sprague-Dawley rat model assessed as change in body weight at 10 mg/kg, iv and measured after 24 hrs; assay type: organism-based; details: in vivo
[20] = Prodrug conversion in Sprague-Dawley rat plasma assessed as MRT of metabolite 4-F-Eda at 10 mg/kg, iv and measured upto 24 hrs by LC-MS/MS analysis; assay type: ADME, organism-based; details: in vivo
[21] = Prodrug conversion in Sprague-Dawley rat plasma assessed as half life of metabolite S-NBP at 10 mg/kg, iv and measured upto 24 hrs by LC-MS/MS analysis; assay type: ADME, organism-based; details: in vivo
[22] = Prodrug conversion in Sprague-Dawley rat plasma assessed as AUC (0-infinity) of metabolite 4-F-Eda at 10 mg/kg, iv and measured upto 24 hrs by LC-MS/MS analysis; assay type: ADME, organism-based; parameters: dose 10 mg/kg, time < 24 hrs, route iv; details: in vivo
[23] = Prodrug conversion in Sprague-Dawley rat plasma assessed as C0 of metabolite 4-F-Eda at 10 mg/kg, iv and measured upto 24 hrs by LC-MS/MS analysis; assay type: ADME, organism-based; details: in vivo
[24] = Prodrug conversion in Sprague-Dawley rat plasma assessed as elimination rate constant of metabolite 4-F-Eda at 10 mg/kg, iv and measured upto 24 hrs by LC-MS/MS analysis; assay type: ADME, organism-based; details: in vivo
[25] = Prodrug conversion in Sprague-Dawley rat plasma assessed as Cmax of metabolite 4-F-Eda at 10 mg/kg, iv and measured upto 24 hrs by LC-MS/MS analysis; assay type: ADME, organism-based; parameters: time < 24 hrs, dose 10 mg/kg, route iv; details: in vivo
[26] = Prodrug conversion in Sprague-Dawley rat plasma assessed as C0 of metabolite S-NBP at 10 mg/kg, iv and measured upto 24 hrs by LC-MS/MS analysis; assay type: ADME, organism-based; details: in vivo
Rattus norvegicus [27] = experiment: Neuroprotective activity against transient middle cerebral artery occlusion induced cerebral infraction Sprague-Dawley rat model assessed as decrease in brain edema at 10 mg/kg, iv and measured after 24 hrs; assay type: functional; parameters: scale not given: the % may be the effect or the level left
[28] = Prodrug conversion in Sprague-Dawley rat plasma assessed as half life of metabolite 4-F-Eda at 10 mg/kg, iv and measured upto 24 hrs by LC-MS/MS analysis; assay type: ADME, organism-based; details: in vivo

Structure (SMILES): CCCC[C@H](OC(C)=O)c1ccccc1C(=O)Oc1cc(C)nn1-c1ccc(F)cc1
- Vdss [1]: 16.1 L/kg
- Kel [2]: 0.123 h⁻¹
- half-life at 200 µM [3]: 17 h
- half-life [4]: 0.833 h
- AUCt [5]: 2958 ng·h/mL
- AUMCt [6]: 4095 hr.hr.ng/ml
- AUMC [7]: 12474 hr.hr.ng/ml
- MRT [8]: 4.45 h
- Drug metabolism [9]: Metabolite_Detected
- AUC [10]: 2819 ng·h/mL
- AUMC [11]: 5109 hr.hr.ng/ml
- AUMCt [12]: 9914 hr.hr.ng/ml
- Vdss [13]: 6.18 L/kg
- Activity (Rattus norvegicus [14]): Active
- Cmax [15]: 3242 ng/mL
- AUCt [16]: 2740 ng·h/mL
- Drug metabolism [17]: Metabolite_Detected
- Activity (Rattus norvegicus [18]): 77.85%
- Activity [19]: Non-Toxic
- MRT [20]: 1.77 h
- t1/2 [21]: 5.69 h
- AUC [22]: 2990 ng·h/mL
- C0 [23]: 8328 ng/mL
- Kel [24]: 0.143 h⁻¹
- Cmax [25]: 5569 ng/mL
- C0 [26]: 4653 ng/mL
- Activity (Rattus norvegicus [27]): 13.96%
- t1/2 [28]: 5.11 h
